{
  "source": "the NIST ThermoML archive (doi:10.1021/je7003512)",
  "key": {"[1]": {"experiment": "refractive index (Na D-line) (dimensionless); xn = mol fraction of the nth substance listed", "conditions": "298.15 K, 101 kPa, Liquid, Standard Abbe refractometry"}, "[2]": {"conditions": "298.15 K; 101.33 kPa; Liquid"}, "[3]": {"experiment": "refractive index (Na D-line) (dimensionless)", "conditions": "298.15 K; 101.33 kPa; Liquid; Standard Abbe refractometry"}},
  "note": "Numbers after ± are expanded uncertainties.",
  "data": [
    {"compound": "CCO", "note": "[ethanol] + CC(C)CC(C)(C)C", "values": [
      {"measurement": "refractive index", "setting": "[1]; x1 = 1", "value": "1.36161 ± 0.00078"}
    ]},
    {"compound": "CC(C)CC(C)(C)C", "note": "[2,2,4-trimethylpentane] + C=COCCC", "values": [
      {"measurement": "refractive index", "setting": "[1]; x2 = 0", "value": "1.39267 ± 0.00078"}
    ]},
    {"compound": "CCO", "note": "[ethanol]", "values": [
      {"measurement": "mass density", "setting": "[2]", "value": "785.32 ± 1.2", "unit": "kg/m3"},
      {"measurement": "refractive index", "setting": "[3]", "value": "1.36161 ± 0.00078"}
    ]},
    {"compound": "CC(C)CC(C)(C)C", "note": "[2,2,4-trimethylpentane] + CCO", "values": [
      {"measurement": "refractive index", "setting": "[1]; x2 = 0", "value": "1.39267 ± 0.00078"},
      {"measurement": "refractive index", "setting": "[1]; x2 = 0.052", "value": "1.39087 ± 0.00078"},
      {"measurement": "refractive index", "setting": "[1]; x2 = 0.1002", "value": "1.38995 ± 0.00078"},
      {"measurement": "refractive index", "setting": "[1]; x2 = 0.199", "value": "1.38855 ± 0.00078"},
      {"measurement": "refractive index", "setting": "[1]; x2 = 0.2992", "value": "1.38682 ± 0.00078"},
      {"measurement": "refractive index", "setting": "[1]; x2 = 0.3991", "value": "1.38458 ± 0.00078"},
      {"measurement": "refractive index", "setting": "[1]; x2 = 0.5005", "value": "1.38228 ± 0.00078"},
      {"measurement": "refractive index", "setting": "[1]; x2 = 0.6006", "value": "1.37947 ± 0.00078"},
      {"measurement": "refractive index", "setting": "[1]; x2 = 0.7002", "value": "1.37613 ± 0.00078"},
      {"measurement": "refractive index", "setting": "[1]; x2 = 0.8006", "value": "1.37214 ± 0.00078"},
      {"measurement": "refractive index", "setting": "[1]; x2 = 0.8998", "value": "1.36728 ± 0.00078"},
      {"measurement": "refractive index", "setting": "[1]; x2 = 0.9503", "value": "1.36436 ± 0.00078"}
    ]},
    {"compound": "CCO", "note": "[ethanol] + C=COCCC", "values": [
      {"measurement": "refractive index", "setting": "[1]; x2 = 0", "value": "1.36161 ± 0.00078"}
    ]},
    {"compound": "C=COCCC", "note": "[propyl vinyl ether] + CC(C)CC(C)(C)C", "values": [
      {"measurement": "refractive index", "setting": "[1]; x1 = 0.0503", "value": "1.39117 ± 0.00078"},
      {"measurement": "refractive index", "setting": "[1]; x1 = 0.1011", "value": "1.39096 ± 0.00078"},
      {"measurement": "refractive index", "setting": "[1]; x1 = 0.2002", "value": "1.39064 ± 0.00078"},
      {"measurement": "refractive index", "setting": "[1]; x1 = 0.3002", "value": "1.39044 ± 0.00078"},
      {"measurement": "refractive index", "setting": "[1]; x1 = 0.3995", "value": "1.39004 ± 0.00078"},
      {"measurement": "refractive index", "setting": "[1]; x1 = 0.4998", "value": "1.38988 ± 0.00078"},
      {"measurement": "refractive index", "setting": "[1]; x1 = 0.6003", "value": "1.38967 ± 0.00078"},
      {"measurement": "refractive index", "setting": "[1]; x1 = 0.7004", "value": "1.38964 ± 0.00078"},
      {"measurement": "refractive index", "setting": "[1]; x1 = 0.7998", "value": "1.38978 ± 0.00078"},
      {"measurement": "refractive index", "setting": "[1]; x1 = 0.9002", "value": "1.39013 ± 0.00078"},
      {"measurement": "refractive index", "setting": "[1]; x1 = 0.9503", "value": "1.39035 ± 0.00078"},
      {"measurement": "refractive index", "setting": "[1]; x1 = 1", "value": "1.39094 ± 0.00078"}
    ]},
    {"compound": "CC(C)CC(C)(C)C", "note": "[2,2,4-trimethylpentane]", "values": [
      {"measurement": "mass density", "setting": "[2]", "value": "688.18 ± 1.3", "unit": "kg/m3"},
      {"measurement": "refractive index", "setting": "[3]", "value": "1.39267 ± 0.00078"}
    ]},
    {"compound": "C=COCCC", "note": "[propyl vinyl ether] + CCO", "values": [
      {"measurement": "refractive index", "setting": "[1]; x1 = 0.0499", "value": "1.36372 ± 0.00078"},
      {"measurement": "refractive index", "setting": "[1]; x1 = 0.1", "value": "1.3655 ± 0.00078"},
      {"measurement": "refractive index", "setting": "[1]; x1 = 0.2002", "value": "1.36949 ± 0.00078"},
      {"measurement": "refractive index", "setting": "[1]; x1 = 0.2996", "value": "1.37356 ± 0.00078"},
      {"measurement": "refractive index", "setting": "[1]; x1 = 0.4004", "value": "1.37689 ± 0.00078"},
      {"measurement": "refractive index", "setting": "[1]; x1 = 0.5006", "value": "1.38018 ± 0.00079"},
      {"measurement": "refractive index", "setting": "[1]; x1 = 0.6005", "value": "1.38262 ± 0.00078"},
      {"measurement": "refractive index", "setting": "[1]; x1 = 0.7005", "value": "1.38517 ± 0.00078"},
      {"measurement": "refractive index", "setting": "[1]; x1 = 0.8002", "value": "1.38724 ± 0.00078"},
      {"measurement": "refractive index", "setting": "[1]; x1 = 0.8997", "value": "1.38925 ± 0.00078"},
      {"measurement": "refractive index", "setting": "[1]; x1 = 0.9492", "value": "1.3901 ± 0.00078"},
      {"measurement": "refractive index", "setting": "[1]; x1 = 1", "value": "1.39094 ± 0.00078"}
    ]},
    {"compound": "CO", "note": "[methanol]", "values": [
      {"measurement": "mass density", "setting": "[2]", "value": "786.54 ± 1.2", "unit": "kg/m3"},
      {"measurement": "refractive index", "setting": "[3]", "value": "1.3267 ± 0.00082"}
    ]},
    {"compound": "C=COCCC", "note": "[propyl vinyl ether]", "values": [
      {"measurement": "mass density", "setting": "[2]", "value": "762.98 ± 1.2", "unit": "kg/m3"},
      {"measurement": "refractive index", "setting": "[3]", "value": "1.39094 ± 0.00078"}
    ]}
  ]
}
